Where two headings read alike, the source gives them in different places.
Legend:
Type in all cases: cell-based, human
MDA-MB-468 = tested on: MDA-MB-468
In short: (§1)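 NCI-60 panel, 5-dose format (100 μM → 0.01 μM, tenfold steps). TGI values used for COMPARE vs. known tubulin inhibitors.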

K-562 = tested on: K-562
In short: as §1

LOX IMVI = tested on: LOX IMVI
In short: (§2)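 Both axial enantiomers of the parent and of the iso series were evaluated in the NCI cancer cell panel at doses of 100 μM, 10 μM, 1 μM, 0.1 μM and 0.01 μM.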

OVCAR-8 = tested on: OVCAR-8
In short: as §1

NCI-H226 = tested on: NCI-H226
In short: as §1

SN12C = tested on: SN12C
In short: as §1

SF-539 = tested on: SF-539
In short: as §1

NCI-H460 = tested on: NCI-H460
In short: as §1

EKVX = tested on: EKVX
In short: as §2

HCT-15 = tested on: HCT-15
In short: as §1

SNB-19 = tested on: SNB-19
In short: as §2

OVCAR-4 = tested on: OVCAR-4
In short: as §1

SNB-75 = tested on: SNB-75
In short: as §1

SW-620 = tested on: SW-620
In short: as §1

786-0 = tested on: 786-0
In short: as §1

SR = tested on: SR
In short: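 Tested in five doses (top 100 μM, lowest 0.01 μM) within the 60 Cell Screen; COMPARE used TGI responses relative to known tubulin inhibitors.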

COLO 205 = tested on: COLO 205
In short: as §1

BT-549 = tested on: BT-549
In short: as §1

CAKI-1 = tested on: CAKI-1
In short: as §1

MCF7 = tested on: MCF7
In short: as §1

UO-31 = tested on: UO-31
In short: as §1

A549/ATCC = tested on: A549/ATCC
In short: as §1

NCI/ADR-RES = tested on: NCI/ADR-RES
In short: as §1

NCI-H522 = tested on: NCI-H522
In short: as §1

HCC-2998 = tested on: HCC-2998
In short: as §1

RPMI-8226 = tested on: RPMI-8226
In short: as §1

HT29 = tested on: HT29
In short: as §1

COc1cc(C)c(-c2ccc(=O)c(OC)cc2C)c(OC)c1OC (single isomer, unassigned) [(aS)-iso-6]
Log10GI50 (MDA-MB-468): -4.85 Molar | Log10LC50 (MDA-MB-468): > -4.00 Molar | Log10TGI (MDA-MB-468): > -4.00 Molar | GI50 (MDA-MB-468; Homo sapiens): 14.1 µM | Log10GI50 (MDA-MB-468; […]): -4.85 Molar | Log10GI50 (K-562): -5.30 Molar | Log10LC50 (K-562): > -4.00 Molar | Log10TGI (K-562): > -4.00 Molar | GI50 (K-562; Homo sapiens, K562): 5.01 µM | Log10GI50 (K-562; […]): -5.3 Molar | Log10GI50 (LOX IMVI): -5.18 Molar | Log10LC50 (LOX IMVI): > -4.00 Molar | Log10TGI (LOX IMVI): > -4.00 Molar | GI50 (LOX IMVI; Homo sapiens): 6.61 µM | Log10GI50 (LOX IMVI; […]): -5.18 Molar | Log10GI50 (OVCAR-8): -4.45 Molar | Log10LC50 (OVCAR-8): > -4.00 Molar | Log10TGI (OVCAR-8): > -4.00 Molar | GI50 (OVCAR-8; Homo sapiens): 35.5 µM | Log10GI50 (OVCAR-8; […]): -4.45 Molar | Log10GI50 (NCI-H226): -4.06 Molar | Log10LC50 (NCI-H226): > -4.00 Molar | Log10TGI (NCI-H226): > -4.00 Molar | GI50 (NCI-H226; Homo sapiens): 87.1 µM | Log10GI50 (NCI-H226; […]): -4.06 Molar | Log10GI50 (SN12C): -4.42 Molar | Log10LC50 (SN12C): > -4.00 Molar | Log10TGI (SN12C): > -4.00 Molar | GI50 (SN12C; Homo sapiens): 38 µM | Log10GI50 (SN12C; […]): -4.42 Molar | Log10GI50 (SF-539): -4.59 Molar | Log10LC50 (SF-539): > -4.00 Molar | Log10TGI (SF-539): > -4.00 Molar | GI50 (SF-539; Homo sapiens): 29.5 µM | Log10GI50 (SF-539; […]): -4.53 Molar | Log10GI50 (NCI-H460): -4.50 Molar | Log10LC50 (NCI-H460): > -4.00 Molar | Log10TGI (NCI-H460): > -4.00 Molar | GI50 (NCI-H460; Homo sapiens): 31.6 µM | Log10GI50 (NCI-H460; […]): -4.5 Molar | Log10GI50 (EKVX): -4.18 Molar | Log10LC50 (EKVX): > -4.00 Molar | Log10TGI (EKVX): > -4.00 Molar | GI50 (EKVX; Homo sapiens): 66.1 µM | Log10GI50 (EKVX; […]): -4.18 Molar | Log10GI50 (HCT-15): -4.89 Molar | Log10LC50 (HCT-15): > -4.00 Molar | Log10TGI (HCT-15): > -4.00 Molar | GI50 (HCT-15; Homo sapiens): 12.9 µM | Log10GI50 (HCT-15; […]): -4.89 Molar | Log10GI50 (SNB-19): -4.53 Molar | Log10LC50 (SNB-19): > -4.00 Molar | Log10TGI (SNB-19): > -4.00 Molar | GI50 (SNB-19; Homo sapiens): 5.37 µM | Log10GI50 (SNB-19; […]): -5.27 Molar | Log10GI50 (OVCAR-4): -4.04 Molar | Log10LC50 (OVCAR-4): > -4.00 Molar | Log10TGI (OVCAR-4): > -4.00 Molar | GI50 (OVCAR-4; Homo sapiens): 91.2 µM | Log10GI50 (OVCAR-4; […]): -4.04 Molar | Log10GI50 (SNB-75): -5.27 Molar | Log10LC50 (SNB-75): > -4.00 Molar | Log10TGI (SNB-75): -4.36 Molar | GI50 (SNB-75; Homo sapiens): 30.9 µM | Log10GI50 (SNB-75; […]): -4.51 Molar | Log10GI50 (SW-620): -4.55 Molar | Log10LC50 (SW-620): > -4.00 Molar | Log10TGI (SW-620): > -4.00 Molar | GI50 (SW-620; Homo sapiens): 30.9 µM | Log10GI50 (SW-620; […]): -4.51 Molar | Log10GI50 (786-0): -4.33 Molar | Log10LC50 (786-0): > -4.00 Molar | Log10TGI (786-0): > -4.00 Molar | GI50 (786-0; Homo sapiens): 46.8 µM | Log10GI50 (786-0; […]): -4.33 Molar | Log10GI50 (SR): -5.24 Molar | Log10LC50 (SR): > -4.00 Molar | Log10TGI (SR): > -4.00 Molar | GI50 (SR; Homo sapiens): 5.75 µM | Log10GI50 (SR; […]): -5.24 Molar | Log10GI50 (COLO 205): -4.66 Molar | Log10LC50 (COLO 205): > -4.00 Molar | Log10TGI (COLO 205): -4.23 Molar | GI50 (COLO 205; Homo sapiens): 21.9 µM | Log10GI50 (COLO 205; […]): -4.66 Molar | Log10GI50 (BT-549): -4.82 Molar | Log10LC50 (BT-549): > -4.00 Molar | Log10TGI (BT-549): > -4.00 Molar | GI50 (BT-549; Homo sapiens): 15.1 µM | Log10GI50 (BT-549; […]): -4.82 Molar | Log10GI50 (CAKI-1): -4.71 Molar | Log10LC50 (CAKI-1): > -4.00 Molar | Log10TGI (CAKI-1): > -4.00 Molar | GI50 (CAKI-1; Homo sapiens): 19.5 µM | Log10GI50 (CAKI-1; […]): -4.71 Molar | Log10GI50 (MCF7): -4.60 Molar | Log10LC50 (MCF7): > -4.00 Molar | Log10TGI (MCF7): > -4.00 Molar | GI50 (MCF7; Homo sapiens): 25.1 µM | Log10GI50 (MCF7; […]): -4.6 Molar | Log10GI50 (UO-31): -4.34 Molar | Log10LC50 (UO-31): > -4.00 Molar | Log10TGI (UO-31): > -4.00 Molar | GI50 (UO-31; Homo sapiens): 45.7 µM | Log10GI50 (UO-31; […]): -4.34 Molar | Log10GI50 (A549/ATCC): -4.45 Molar | Log10LC50 (A549/ATCC): > -4.00 Molar | Log10TGI (A549/ATCC): > -4.00 Molar | GI50 (A549/ATCC; Homo sapiens): 35.5 µM | Log10GI50 (A549/ATCC; […]): -4.45 Molar | Log10GI50 (NCI/ADR-RES): -4.55 Molar | Log10LC50 (NCI/ADR-RES): > -4.00 Molar | Log10TGI (NCI/ADR-RES): > -4.00 Molar | GI50 (NCI/ADR-RES; Homo sapiens): 28.2 µM | Log10GI50 (NCI/ADR-RES; […]): -4.55 Molar | Log10GI50 (NCI-H522): -4.69 Molar | Log10LC50 (NCI-H522): > -4.00 Molar | Log10TGI (NCI-H522): -4.15 Molar | GI50 (NCI-H522; Homo sapiens): 20.4 µM | Log10GI50 (NCI-H522; […]): -4.69 Molar | Log10GI50 (HCC-2998): -4.48 Molar | Log10LC50 (HCC-2998): > -4.00 Molar | Log10TGI (HCC-2998): > -4.00 Molar | GI50 (HCC-2998; Homo sapiens): 33.1 µM | Log10GI50 (HCC-2998; […]): -4.48 Molar | Log10GI50 (RPMI-8226): -4.38 Molar | Log10LC50 (RPMI-8226): > -4.00 Molar | Log10TGI (RPMI-8226): > -4.00 Molar | GI50 (RPMI-8226; Homo sapiens): 41.7 µM | Log10GI50 (RPMI-8226; […]): -4.38 Molar | Log10GI50 (HT29): -4.60 Molar | Log10LC50 (HT29): > -4.00 Molar | Log10TGI (HT29): -4.03 Molar | GI50 (HT29; Homo sapiens, HT-29): 25.1 µM | Log10GI50 (HT29; […]): -4.6 Molar

From article PMC12150326 (The Journal of Organic Chemistry, 2025)
